22 compounds from patent EP1614683B1, “Indazole compounds and pharmaceutical compositions for inhibiting protein kinases, and methods for their use” (priority 1999, dated 2001) can be followed below.

Molecules are shown by their SMILES. Like-named read-outs stand apart in the source and are kept apart here.

One may read the inhibition as the relative decrease from the control value, in per cent. The term IC50 denotes the concentration at which inhibition is half-maximal.

For one data set, the target named is human FGF-R1 (Homo sapiens, UniProt P11362, C488A/C584S/L457V). Description: FGF-R spectrophotometric assay. To be noted: read-out: FGF-P* (% inhibition). It is filed as biochemical. As to the method: The spectrophotometric assay was carried out as described above for VEGF-R2, except for the following changes in concentration: FGF-R = 50 nM, ATP = 2 mM, and poly(E4Y1) =15 mM.
human FGF-R1, sequence (P11362 456-766 L457V/C488A/C584S): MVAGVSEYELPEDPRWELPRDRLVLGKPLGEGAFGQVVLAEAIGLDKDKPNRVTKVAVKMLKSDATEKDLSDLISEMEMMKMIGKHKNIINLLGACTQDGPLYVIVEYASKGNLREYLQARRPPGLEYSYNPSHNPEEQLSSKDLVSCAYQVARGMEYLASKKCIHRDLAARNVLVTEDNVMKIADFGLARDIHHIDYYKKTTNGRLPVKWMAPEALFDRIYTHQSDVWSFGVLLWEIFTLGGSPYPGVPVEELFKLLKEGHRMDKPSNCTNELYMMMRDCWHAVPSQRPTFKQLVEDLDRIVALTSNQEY

In data set [1] the test system is human umbilical vein endothelial cells (HUVEC). Nature of the data set: HUVEC proliferation assay (VEGF-stimulated, MTT). The data set is classed as cell-based. The settings on record: Homo sapiens, HUVEC, Table 1; + albumin; read-out: HUVEC + albumin IC50.
Another data set addresses LCK tyrosine kinase (Homo sapiens, UniProt P06239, C224D/P223M). Description: LCK spectrophotometric assay. The data set is classed as biochemical. The settings on record: Table 1; compound concentration 1 µM; read-out: Lck-P* (% inhibition). The method, then:
The spectrophotometric assay was carried out as described above for VEGF-R2, except for the following changes in concentration: LCK = 60 nM, MgCl2 = 0 mM, poly(E4Y1) = 20 mM.

Data set [2] has as its target unphosphorylated VEGF-R2Δ50 (Homo sapiens, UniProt P35968, DEL940-989/E990V). Nature of the data set: biochemical. The settings on record: for inhibition at 0.05 µM: read-out: FLVK ** (% inhibition).
The next data set is described as follows: in vitro. It is filed as in vitro ADME, human. The settings on record: human liver microsomes, 5 µM test compound, 37 °C, 2 h. As to the method: Compound metabolism in human liver microsomes was measured by LC-MS analytical assay procedures as follows. First, human liver microsomes (HLM) were thawed and diluted to 5 mg/mL with cold 100 mM potassium phosphate (KPO4) buffer. Appropriate amounts of KPO4 buffer, NADPH-regenerating solution (containing B-NADP, glucose-6-phosphate, glucose-6-phosphate dehydrogenase, and MgCl2), and HLM were preincubated in 13 x 100 mm glass tubes at 37 C for 10 min. (3 tubes per test compound--triplicate). Test compound (5 µM final) was added to each tube to initiate reaction and was mixed by gentle vortexing, followed by incubation at 37 °C. At t=0, 2 h, a 250-µL sample was removed from each incubation tube to separate 12 x 75 mm glass tubes containing 1 mL ice-cold acetonitrile with 0.05 µM reserpine. […] Supernatant was transferred to new 12 x 75 mm glass tubes and evaporated by Speed-Vac centrifugal vacuum evaporator. Samples were reconstituted in 200 µL 0.1 % formic acid/acetonitrile (90/10) and vortexed vigorously to dissolve. The samples were then transferred to separate polypropylene microcentrifuge tubes and centrifuged at 14000 x g for 10 min. (Fisher Micro 14, S/N M0017580). For each replicate (#1-3) at each timepoint (0 and 2 h), an aliquot sample of each test compound was combined into a single HPLC vial insert (6 total samples) for LC-MS analysis, which is described below.
On the technique in general: Liver microsomes are a subcellular fraction often used to study metabolism.

Setting [3] is: Table 1, compound concentration 1 µM.

unphosphorylated VEGF-R2Δ50, sequence (P35968 with tags, fused parts or gaps DEL940-989/E990V limits assumed): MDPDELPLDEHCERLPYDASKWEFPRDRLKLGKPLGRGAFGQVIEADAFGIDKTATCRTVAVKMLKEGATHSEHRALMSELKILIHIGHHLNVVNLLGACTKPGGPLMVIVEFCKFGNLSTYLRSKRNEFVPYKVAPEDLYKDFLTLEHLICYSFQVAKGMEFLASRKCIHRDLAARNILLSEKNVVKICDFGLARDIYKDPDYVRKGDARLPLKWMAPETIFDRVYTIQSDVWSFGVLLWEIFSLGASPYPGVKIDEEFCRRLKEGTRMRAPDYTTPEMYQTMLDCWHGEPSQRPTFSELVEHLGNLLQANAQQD
LCK tyrosine kinase, sequence (P06239 223-509 P223M/C224D): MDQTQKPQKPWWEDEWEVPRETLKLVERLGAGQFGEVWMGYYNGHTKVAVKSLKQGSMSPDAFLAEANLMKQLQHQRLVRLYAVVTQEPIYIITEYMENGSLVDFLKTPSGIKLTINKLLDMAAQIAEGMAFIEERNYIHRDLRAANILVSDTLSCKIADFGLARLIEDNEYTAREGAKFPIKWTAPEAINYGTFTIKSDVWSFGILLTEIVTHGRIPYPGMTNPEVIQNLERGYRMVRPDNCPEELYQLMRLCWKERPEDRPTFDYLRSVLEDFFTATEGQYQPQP

Regarding `O=C(N[C@@H]1C[C@H]1c1ccccc1)c1ccccc1Sc1ccc2c(/C=C/c3ccccn3)n[nH]c2c1` (racemic) [Reference Example 34], the inhibition at 1 µM at human FGF-R1 (setting [3]) was 95%; at LCK tyrosine kinase, 78%. In addition, the concentration for half-maximal inhibition (IC50) in data set [1] amounted to 15 nM. In addition, the inhibition at 0.05 µM in data set [2] was 97%.

`CC(C)NC(=O)c1ccccc1Sc1ccc2c(/C=C/c3ccccn3)n[nH]c2c1` [Reference Example 35(b), 6-[2-(i-Propylcarbamoyl)phenylsulfanyl]-3-E-[2-(pyridin-2-yl)ethenyl]-1H-indazole]: the figures for the inhibition at 1 µM on human FGF-R1 (setting [3]) and on LCK tyrosine kinase were 59% and 12%, respectively. The half-inhibitory concentration (IC50) in data set [1] stood at 35 nM. The inhibition at 0.05 µM in data set [2] was found to be 49%.

With `O=C(NCc1ccccc1F)c1ccccc1Sc1ccc2c(/C=C/c3ccccn3)n[nH]c2c1` [Reference Example 35(f)], in “in vitro”, the “% remain (HLM, 2 h)” value is recorded as 15%. In data set [2], the inhibition at 0.05 µM was 100%.

As for `O=C(NCCc1cccs1)c1ccccc1Sc1ccc2c(/C=C/c3ccccn3)n[nH]c2c1` [Reference Example 35(hh), 6-[2-(2-(Thien-2-yl)ethylcarbamoyl)phenylsulfanyl]-3-E-[2-(pyridin-2-yl)ethenyl]-1H-indazole], the values for the inhibition at 1 µM on human FGF-R1 (setting [3]) and on LCK tyrosine kinase were 73% and 34%, respectively. In addition, the concentration for half-maximal inhibition (IC50) in data set [1] came to 7 nM. For the same compound, the inhibition at 0.05 µM in data set [2] is 100%.

Regarding `O=C(NCc1ccncc1)c1ccccc1Sc1ccc2c(/C=C/c3ccccn3)n[nH]c2c1` [Reference Example 35(p), 6-[2-((Pyrid-4-yl)methylcarbamoyl)phenylsulfanyl]-3-E-[2-(pyridin-2-yl)ethenyl]-1H-indazole], the inhibition at 1 µM at human FGF-R1 (setting [3]) is 11%; at LCK tyrosine kinase it was 5%. For the same compound, the inhibition at 0.05 µM in data set [2] amounted to 62%.

`Cc1ccccc1C(=O)NNC(=O)c1ccccc1Sc1ccc2c(/C=C/c3ccccn3)n[nH]c2c1` [Reference Example 35(q), 6-[2-((2-Methylphenylhydrazido)carbonyl)phenylsulfanyl]-3-E-[2-(pyridin-2-yl)ethenyl]-1H-indazole]: the inhibition at 1 µM at human FGF-R1 (setting [3]) stood at 51%; on LCK tyrosine kinase, 42%. In addition, the half-inhibitory concentration (IC50) in data set [1] was 18 nM. Besides, in data set [2], the inhibition at 0.05 µM was determined as 92%.

Turning to `Cn1ccnc1/C=N/NC(=O)c1ccccc1Sc1ccc2c(/C=C/c3ccccn3)n[nH]c2c1` [Reference Example 36(a)], the inhibition at 1 µM on human FGF-R1 (setting [3]) was found to be 38%; at LCK tyrosine kinase, 19%. Besides, the IC50 in data set [1] turned out to be 19 nM. Further, the inhibition at 0.05 µM in data set [2] was determined as 87%.

With `O=C(N/N=C/c1ccccn1)c1ccccc1Sc1ccc2c(/C=C/c3ccccn3)n[nH]c2c1` [Reference Example 36(b)], the values for the inhibition at 1 µM on human FGF-R1 (setting [3]) and at LCK tyrosine kinase were 43% and 22%, respectively. Further, in data set [2], the inhibition at 0.05 µM worked out at 85%.

On to `O=C(N/N=C/C(F)(F)F)c1ccccc1Sc1ccc2c(/C=C/c3ccccn3)n[nH]c2c1` [Reference Example 36(c)], for which the inhibition at 1 µM was determined as 60% on human FGF-R1 (setting [3]) and 28% on LCK tyrosine kinase. Further, in data set [2], the inhibition at 0.05 µM is 89%.

Consider `O=C(NC1CC1)c1cccc(F)c1Sc1ccc2c(/C=C/c3ccccn3)n[nH]c2c1` [Reference Example 37(b), 6-[6-Fluoro-2-(cyclopropylcarbamoyl)phenylsulfanyl]-3-E-[2-(pyridin-2-yl)ethenyl]-1H-indazole], for which the values for the inhibition at 1 µM at human FGF-R1 (setting [3]) and at LCK tyrosine kinase were 36% and 8%, respectively. The IC50 in data set [1] lay in the range of 30 to 100 nM. In data set [2], the inhibition at 0.05 µM was 48%.

`CNC(=O)c1cccc(F)c1Sc1ccc2c(/C=C/c3ccccn3)n[nH]c2c1` [Reference Example 37(d), 6-[6-Fluoro-2-(methylcarbamoyl)phenylsulfanyl]-3-E-[2-(pyridin-2-yl)ethenyl]-1H-indazole]: the inhibition at 1 µM was 38% at human FGF-R1 (setting [3]) and 10% on LCK tyrosine kinase. Further, the inhibition at 0.05 µM in data set [2] worked out at 26%.

On to `Cc1ccc(C(=O)c2ccc3c(/C=C/c4ccccn4)n[nH]c3c2)cc1N` [Reference Example 40(b), 6-(3-Amino-4-methyl-benzoyl)-3-E-[2-(pyridin-2-yl)ethenyl]-1H-indazole], for which the inhibition at 1 µM was determined as 92% at human FGF-R1 (setting [3]) and 32% at LCK tyrosine kinase. The inhibition at 0.05 µM in data set [2] is 89%.

As to `Cc1cc(C)c(C(=O)c2ccc3c(/C=C/c4ccccn4)n[nH]c3c2)cc1N` [Reference Example 40(c), 6-(5-Amino-2,4-dimethyl-benzoyl)-3-E-[2-(pyridin-2-yl)ethenyl]-1H-indazole], the values for the inhibition at 1 µM on human FGF-R1 (setting [3]) and on LCK tyrosine kinase were 59% and 28%, respectively. Also, the inhibition at 0.05 µM in data set [2] was determined as 24%.

With `O=C(Nc1cccc(C(=O)c2ccc3c(/C=C/c4ccccn4)n[nH]c3c2)c1)Oc1ccccc1` [Reference Example 41(cc), 6-[3-(phenoxyamido)benzoyl]-3-E-[2-(pyridin-2-yl)ethenyl]-1H-indazole], the inhibition at 1 µM was 95% on human FGF-R1 and 41% on LCK tyrosine kinase. Moreover, the inhibition at 0.05 µM in data set [2] came out at 97%.

For the compound `Cc1cc(C(=O)Nc2cc(C(=O)c3ccc4c(/C=C/c5ccccn5)n[nH]c4c3)ccc2C)n(C)n1` [Reference Example 41(hh), 6-[3-((1,3-Dimethyl-1H-pyrazol-5-yl)carboxamido)-4-methylbenzoyl]-3-E-[2-(pyridin-2-yl)ethenyl]-1H-indazole], the results for the inhibition at 1 µM on human FGF-R1 (setting [3]) and at LCK tyrosine kinase were 74% and 13%, respectively. In addition, the half-maximal inhibitory concentration (IC50) in data set [1] was 3.9 nM. Besides, in data set [2], the inhibition at 0.05 µM is 98%.

`CCc1cc(C(=O)Nc2cc(C(=O)c3ccc4c(/C=C/c5ccccn5)n[nH]c4c3)ccc2C)n(C)n1` [Reference Example 41(jj), 6-[3-((3-Ethyl-1-methyl-1H-pyrazol-5-yl)carboxamido)-4. methylbenzoyl]-3-E-[2-(pyridin-2-yl)ethenyl]-1H-indazole]: the inhibition at 1 µM turned out to be 81% at human FGF-R1 (setting [3]) and 19% at LCK tyrosine kinase. In addition, the half-inhibitory concentration (IC50) in data set [1] was 21 nM. The inhibition at 0.05 µM in data set [2] was 87%.

With `CC(=O)Nc1cc(C(=O)c2ccc3c(/C=C/c4ccccn4)n[nH]c3c2)c(C)cc1C` [Reference Example 41(nn), 6-(5-acetamido-2,4-dimethylbenzoyl)-3-E-[2-(pyridin-2-yl)ethenyl]-1H-indazole], the inhibition at 1 µM on human FGF-R1 (setting [3]) was 91%; on LCK tyrosine kinase, 7%. In addition, the inhibition at 0.05 µM in data set [2] was found to be 57%.

Consider `Cc1cc(C(=O)Nc2cccc(C(=O)c3ccc4c(/C=C/c5ccccn5)n[nH]c4c3)c2)cc(Cl)n1` [Reference Example 41(q), 6-[3-((2-chloro-6-methylpyridin-4-yl)carboxamido)benzoyl]-3-E-[2-(pyridin-2-yl)ethenyl]-1H-indazole], for which the inhibition at 1 µM turned out to be 91% on human FGF-R1 (setting [3]) and 53% at LCK tyrosine kinase. The inhibition at 0.05 µM in data set [2] amounted to 100%.

Turning to `CCc1cc(C(=O)Nc2cccc(C(=O)c3ccc4c(/C=C/c5ccccn5)n[nH]c4c3)c2)n(C)n1` [Reference Example 41(v), 6-[3-((3-Ethyl-1-methyl-1H-pyrazol-5-yl)carboxamido)benzoyl]-3-E-[2-(pyridin-2-yl)ethenyl)-1H-indazole], the inhibition at 1 µM at human FGF-R1 (setting [3]) turned out to be 68%; on LCK tyrosine kinase, 52%; in data set [2] (read-out: FLVK ** (% inhibition, cell marked *)), 68%. Also, the concentration for half-maximal inhibition (IC50) in data set [1] was determined as 12 nM.

As to `O=C(Nc1cccc(C(=O)c2ccc3c(/C=C/c4ccccn4)n[nH]c3c2)c1)c1ccnc(Cl)c1` [Reference Example 41(w), 6-[3-((2-chloropyridin-4-yl)carboxamido)benzoyl]-3-E-[2-(pyridin-2-yl)ethenyl]-1H-indazole], the inhibition at 1 µM came to 67% on human FGF-R1 (setting [3]) and 49% at LCK tyrosine kinase. In addition, the IC50 in data set [1] is roughly 10 nM. The inhibition at 0.05 µM in data set [2] was found to be 97%.

On to `CC(C)COC(=O)Nc1cccc(C(=O)c2ccc3c(/C=C/c4ccccn4)n[nH]c3c2)c1` [Reference Example 41(y)], for which the inhibition at 1 µM came out at 86% on human FGF-R1 (setting [3]) and 61% on LCK tyrosine kinase. The half-inhibitory concentration (IC50) in data set [1] was in the range of 30 to 100 nM. In addition, the inhibition at 0.05 µM in data set [2] amounted to 98%.

With `O=C(c1cccc(NC(=O)c2cc(Cl)ccn2)c1)c1ccc2c(/C=C/c3ccccn3)n[nH]c2c1` [Reference Example 41(z), 6-[3-((4-chloropyridin-2-yl)carboxamido)benzoyl]-3-E-[2-(pyridin-2-yl)ethenyl]-1H-indazole], the figures for the inhibition at 1 µM on human FGF-R1 (setting [3]) and at LCK tyrosine kinase were 74% and 54%, respectively. The concentration for half-maximal inhibition (IC50) in data set [1] was 7.5 nM. For the same compound, the inhibition at 0.05 µM in data set [2] was found to be 100%.
